The values that follow come from publication PMC12131314, “Design, synthesis and cytotoxic research of a novel antitumor model based on acrylamide–PABA analogs via β-tubulin inhibition” (RSC Advances, 2025).

What all share (type): cell-based
One assay concerns p53. Put plainly: qRT-PCR expression level of p53. The following applies: MCF-7 cells. The source says:
(§1) The apoptotic markers related to apoptosis were crucial in preventing cancer.[30] p53 and other apoptotic regulators function as transcription factors that can activate several target genes in response to oncogenic stress, causing cell cycle arrest, apoptosis activation, and degeneration, while also promoting DNA repairs.[31] As a result, the apoptosis-related markers work together in order to ensure that cells with mutations that promote cancer (including broken genomes) are either repaired or permanently eliminated.[32] To further comprehend the molecular process involved in the apoptotic efficacy of the acrylamide–PABA analogs, the expression levels of p53, Bax, Bcl-2 and caspase 9 were evaluated. […] This was carried out in contrast to a negative control group. […] This was accompanied by a notable drop in the level of Bcl-2 (0.29-fold). […]
(§2) S4.2.4. qRT-PCR measurements of p53, Bax, Bcl2 and caspase 9 for compound […]
(§3) Real-time PCR for p53, BAX, Bcl-2 and caspase 9 genes expression was done using commercial Qiagen RNA extraction/ BioRad SYBER green PCR master mix according manufacturer's instructions. […]
(§4) Relative quantification of target genes was run on Rotor-Gene 6000 Series Software
Background: Quantitative PCR measures a nucleic acid by following its amplification.

Assay [1] concerns MCF-7 cells. Description: Annexin V-FITC/PI apoptosis assay by flow cytometry. To be noted: 4j at the IC50, 48 h. The method, then:
Understanding the biological mechanism of action of chemotherapeutic agents is an important aspect of the pharmaceutical development process.[28] […] Following cellular staining with Annexin V –FITC/propidium iodide (PI), FACS analysis was conducted. To differentiate between early and late apoptosis, both stains were used. (PI^−/Annexin V-FITC^+) represented early apoptotic cells, (PI^+/Annexin V-FITC^+) indicated late apoptotic cells, and (PI^+/Annexin V-FITC^−) represented necrotic cells. However, healthy cells were not stained (PI^−/Annexin V-FITC^−). […] This was clarified by compound 4j's modest degree of induced necrosis in contrast to its markedly elevated levels of induced early and late apoptosis. Acrylamide–PABA analog 4j induced both early apoptosis (22.07%) and late apoptosis (7.56%) in comparison with modest level of necrosis (3.19%).
S4.2.3. Apoptosis assay for compound 4j
Apoptosis in MCF-7 cells was investigated using fluorescent Annexin V-FITC/ PI detection kit (BioVision Annexin V-FITC Apoptosis Detection Kit, Catalog #: K101) by flow cytometry assay. MCF-7 cells at a density of 2 × 10^5 per well were treated with compound 4j at the IC50 (µM) for 48 h, then the cells were harvested and stained with Annexin V-FITC/ PI dye for 15 min in the dark at 37 °C. The samples were immediately analyzed using FACS Calibur flow cytometer (Becton and Dickinson, […]
as §2
Real-time PCR for p53, BAX, Bcl-2 and caspase 9 genes expression was done using commercial Qiagen RNA extraction/ BioRad SYBER green PCR master mix according manufacturer's instructions. Briefly, 2 µl of cDNA template, 10 pMol of each forward and reverse primer, 10 µl of 2X Master Mix and to 20 µl total reaction mixture volume by nuclease free water and then was introduced to thermal cycler […]
(1 picture or pasted object on this page, not shown here)
In general terms: In flow cytometry, cells or beads pass a laser one at a time.

For assay [2], the system named is MCF-10A (normal breast) cell line. Description: MTT cytotoxicity assay, MCF-10A normal breast cell line. To be noted: Homo sapiens, MCF-10A normal breast cells, triplicate. The method, then: (§5) S4.2.1. Cytotoxic activity evaluation
(§6) To measure the cytotoxic actvity of the synthesized acrylamide-PABA derivatives 4a-j in breast MCF-7 (ATCC Cat. No. HTB-22), liver HepG2 (ATCC Cat No. HB-8065), and normal breast MCF-10A (ATCC Cat. No. CRL 10317) cell lines, cell viability assay was assessed using MTT assay method. Cells at density of 1 x 104 were seeded in a 96-well plate at 37 °C for 24 h under 5% CO2. After incubation, the cells were treated with different concentrations of the test acrylamide-PABA hybrids 4a-j and incubated for 24 h, then 20 µl of MTT solution at 5 mg/mL was applied and incubated for 4 h at 37 °C. Dimethyl sulphoxide (DMSO) in volume of 100 µl was added to each well to dissolve the purple formazan that had formed. The color intensity of the formazan product, which represents the growth condition of the cells, is quantified by using an ELISA plate reader (EXL 800, USA) at 570 nm absorbance. The experimental conditions were carried out with at least three replicates, and the experiments were repeated at least three times. […]
On the technique in general: Tetrazolium assays rely on reduction of a dye to a coloured formazan, in cell work by metabolically active cells.

The test system of another assay is caspase 9. Description: qRT-PCR expression level of caspase 9. The following applies: MCF-7 cells.
Source text: as §1, §2, §3, §4

The next assay concerns β-tubulin. Put plainly: β-tubulin polymerization inhibition (β-tubulin assay kit) in MCF-7 cells. The method, then: as §5
To measure the cytotoxic actvity of the synthesized acrylamide-PABA derivatives 4a-j in breast MCF-7 (ATCC Cat. No. HTB-22), liver HepG2 (ATCC Cat No. HB-8065), and normal breast MCF-10A (ATCC Cat. No. CRL 10317) cell lines, cell viability assay was assessed using MTT assay method. Cells at density of 1 x 104 were seeded in a 96-well plate at 37 °C for 24 h under 5% CO2. After incubation, the cells were treated with different concentrations of the test acrylamide-PABA hybrids 4a-j and incubated for 24 h, then 20 µl of MTT solution at 5 mg/mL was applied and incubated for 4 h at 37 °C. Dimethyl sulphoxide (DMSO) in volume of 100 µl was added to each well to dissolve the purple formazan that had formed. The color intensity of the formazan product, which represents the growth condition of the cells, is quantified by using an ELISA plate reader (EXL 800, USA) at 570 nm absorbance. The experimental conditions were carried out with at least three replicates, and the experiments were repeated at least three times.
S4.2.2. β-tubulin inhibition Assay […]
according to manufacturer’s instructions

Assay [3] relates to MCF-7 breast cancer cell line. Description: MTT cytotoxicity assay, MCF-7 breast cancer cell line. To be noted: for IC50: MCF-7 breast carcinoma cells, triplicate. The method, then:
The MTT colorimetric technique was used to evaluate the cytotoxic activity of the newly produced acrylamide–PABA hybrids 4a–j against the MCF-7 breast cancer cell line.
as §5, §6

The test system of assay [4] is HepG2 hepatocellular carcinoma cell line. Description: MTT cytotoxicity assay, HepG2 hepatocellular carcinoma cell line. The following applies: Homo sapiens, HepG2 cells, triplicate. The method, then:
as §5, §6

The subject of another assay is Bax. Put plainly: qRT-PCR expression level of Bax. The following applies: MCF-7 cells.
Source text: as §1, §2, §3, §4

Assay [5] relates to MCF-7 cells. Put plainly: Cell cycle analysis (PI, flow cytometry). To be noted: 4j at the IC50, 48 h. The source says: In cancer mass development, the disruption of the cell cycle can be an important event. Cellular cycle progression has two primary checkpoints: G1/S before DNA replication and G2/M before mitosis.[33] A p53-responsive gene such as p21^wafi regulates the G1/S checkpoint and mediates cell cycle arrest.[34] Since the cytotoxic activity of the synthesized analogs against MCF-7 cells was induced by the enhanced apoptotic levels, we examined whether these analogs further induced cell cycle arrest. […] As can been seen in Fig. 5, the cellular distribution at each stage is depicted in the histogram of the cellular cycle caused by the acrylamide–PABA hybrid 4j. […]
instrument (Thermo Scientific, USA). The cycling parameters for the PCR amplification were achieved by initial denaturation at 95 °C for 3 minutes followed by 40 cycles of 94 °C for 15 seconds and annealing/extension step at 60 °C for 1 min.
Relative quantification of target genes was run on Rotor-Gene 6000 Series Software […]
Table 1: The primer sequences for Real Time PCR assay
S4.2.5. Cell cycle analysis of compound 4j
Cell cycle analysis in MCF-7 cells was investigated using fluorescent Annexin V-FITC/ PI detection kit (BioVision EZCellTM Cell Cycle Analysis Kit Catalog #K920) by flow cytometry assay. MCF-7 cells at a density of 2 × 10^5 per well were harvested and washed twice in PBS. After that, the cells were incubated at 37 °C and 5% CO2.
The medium was incubated with the tested compound 4j at the IC50 (µM) for 48 h, washed twice in PBS, fixed with 70% ethanol, rinsed again with PBS. Afterward, medium was stained with DNA fluorochrome PI for 15 min at 37 °C. The samples were immediately analyzed using Facs Calibur flow cytometer (Becton and Dickinson, Heidelberg, Germany).
S4.3. Molecular modeling study
Molecular docking simulations were conducted using AutoDock Vina to investigate ligand interactions with the tubulin complex. The three-dimensional (3D) structure of the tubulin heterodimer was obtained from the Protein Data Bank (PDB ID: 1SA0), with chain B of the colchicine-bound complex selected as the docking target. […]

The test system of another assay is Bcl-2. Description: qRT-PCR expression level of Bcl-2. The following applies: MCF-7 cells.
Source text: as §1, §2, §3, §4

Structures are written as SMILES.

With `COc1cc(C(=O)N/C(=C\c2ccco2)C(=O)NNC(=O)c2ccc(N)cc2)cc(OC)c1OC` [4j, (Z)-N-(3-(2-(4-Aminobenzoyl)hydrazineyl)-1-(furan-2-yl)-3-oxoprop-1-en-2-yl)-3,4,5-trimethoxybenzamide], in the assay with p53, the “expression level of p53 compared to negative controls” value amounted to 5.14 fold. In the assay on MCF-7 cells [1], the early apoptosis is 22.07%, the late apoptosis came out at 7.56% and the necrosis was 3.19%. Moreover, inhibition in [2] was half-maximal at 23.2 ± 1.06 µM (IC50). Moreover, the “expression level of caspase 9 compared to negative controls” value in the assay on caspase 9 stood at 9.89 fold. Also, the “percentage inhibition of β-tubulin polymerization” value in the assay on β-tubulin turned out to be 81.51%. In assay [3] (Homo sapiens, MCF7, MTT), this compound gave an IC50 of 1.83 ± 0.06 µM. In addition, the “fold more potent than the reference drug Col (MCF-7 IC50)” value in assay [3] (MCF-7 cells, relative to Col) is reported as 1.9 fold. Further, in [4], half-maximal inhibition (IC50) required 2.14 ± 0.09 µM. The “expression level of Bax compared to negative controls” value in the assay with Bax is reported as 8.36 fold. Moreover, in the assay with MCF-7 cells [5] (negative control 29.51%), the “cell population at S phase” value amounted to 18.83%. Also, the “cell population at G1 phase” value in the assay with MCF-7 cells [5] (negative control 61.08%) came out at 46.99%. Moreover, the “cell population at G2/M phase” value in the assay on MCF-7 cells [5] (untreated control 9.41%) was 34.18%. Moreover, the “level of Bcl-2 compared to negative controls” value in the assay on Bcl-2 was 0.29 fold.

With `COc1cc(C(=O)N/C(=C\c2ccc([N+](=O)[O-])cc2)C(=O)NNC(=O)c2ccc(N)cc2)cc(OC)c1OC` [4c, (Z)-N-(3-(2-(4-Aminobenzoyl)hydrazineyl)-1-(4-nitrophenyl)-3-oxoprop-1-en-2-yl)-3,4,5-trimethoxybenzamide], the IC50 was above 30 µM in assay [3] (Homo sapiens, MCF7, MTT) and 39.7 ± 1.34 µM in assay [3] (MTT).

The compound `COc1ccc(/C=C(\NC(=O)c2cc(OC)c(OC)c(OC)c2)C(=O)NNC(=O)c2ccc(N)cc2)cc1OC` [4g, (Z)-N-(3-(2-(4-Aminobenzoyl)hydrazineyl)-1-(3,4-dimethoxyphenyl)-3-oxoprop-1-en-2-yl)-3,4,5-trimethoxybenzamide] yielded an IC50 in [3] (Homo sapiens, MCF7, MTT) of 17.1 ± 0.58 µM.

Turning to `COc1cc(C(=O)N/C(=C\c2ccc(F)cc2)C(=O)NNC(=O)c2ccc(N)cc2)cc(OC)c1OC` [4a, (Z)-N-(3-(2-(4-Aminobenzoyl)hydrazineyl)-1-(4-fluorophenyl)-3-oxoprop-1-en-2-yl)-3,4,5-trimethoxybenzamide], the IC50 in assay [2] worked out at 19.8 ± 0.62 µM; in [3] (Homo sapiens, MCF7, MTT) it was 2.99 ± 0.1 µM; in assay [4], 4.87 ± 0.13 µM. Also, the “percentage inhibition of β-tubulin polymerization” value with β-tubulin is reported as 78.19%.

In [3] (Homo sapiens, MCF7, MTT), `COc1cc(C(=O)N/C(=C\c2cc(Br)c(O)c(Br)c2)C(=O)NNC(=O)c2ccc(N)cc2)cc(OC)c1OC` [4h, (Z)-N-(3-(2-(4-Aminobenzoyl)hydrazineyl)-1-(3,5-dibromo-4-hydroxyphenyl)3-oxoprop-1-en-2-yl)-3,4,5-trimethoxybenzamide] showed an IC50 of 19.9 ± 0.67 µM.

With `COc1cc(C(=O)N/C(=C\c2ccc(Cl)cc2)C(=O)NNC(=O)c2ccc(N)cc2)cc(OC)c1OC` [4b, (Z)-N-(3-(2-(4-Aminobenzoyl)hydrazineyl)-1-(4-chlorophenyl)-3-oxoprop-1-en-2-yl)-3,4,5-trimethoxybenzamide], the IC50 in [3] (Homo sapiens, MCF7, MTT) worked out at 25.3 ± 0.86 µM.

In turn, `COc1cc(C(=O)N/C(=C\c2ccc(N(C)C)cc2)C(=O)NNC(=O)c2ccc(N)cc2)cc(OC)c1OC` [4f, (Z)-N-(3-(2-(4-Aminobenzoyl)hydrazineyl)-1-(4-(dimethylamino)phenyl)-3-oxoprop-1-en-2-yl)-3,4,5-trimethoxybenzamide] had an IC50 in assay [3] (Homo sapiens, MCF7, MTT) of 27.2 ± 0.92 µM.

`COc1cc(/C=C(\NC(=O)c2cc(OC)c(OC)c(OC)c2)C(=O)NNC(=O)c2ccc(N)cc2)cc(OC)c1OC` [4i, (Z)-N-(3-(2-(4-Aminobenzoyl)hydrazineyl)-3-oxo-1-(3,4,5-trimethoxyphenyl)prop-1-en-2-yl)-3,4,5-trimethoxybenzamide]: in assay [3] (Homo sapiens, MCF7, MTT), the IC50 is 4.51 ± 0.15 µM. Against the preceding compound, the IC50 is about 6-fold lower.

In general, IC50 refers to the concentration that gives 50% inhibition.
